Source: patent US10711033B2, “Branched chain-containing aromatic compound” (AJINOMOTO CO., INC., priority 2010, dated 2020)

Assay: Solubility (20° C.) of branched chain-containing and straight chain-containing aromatic compounds in various solvents
Settings: for solubility in CPME: saturated in CPME (cyclopentylmethylether) at 20° C.; for solubility in chloroform: saturated in chloroform at 20° C.; for solubility in ethyl acetate: saturated in ethyl acetate at 20° C.; for solubility in isopropyl acetate: saturated in isopropyl acetate at 20° C.; for solubility in toluene: saturated in toluene at 20° C.

For `CCCCCCCCCCCCCCCCCCCCCCOc1ccc(C(N)c2ccc(C)cc2)cc1` (centres unmarked) [compound 3], the “solubility in CPME” value was 0.01 wt %, the solubility in chloroform was 0.8 wt % and the “solubility in ethyl acetate” value was 0.2 wt %. The “solubility in isopropyl acetate” value was 0.1 wt % and the solubility in toluene was 0.01 wt %.

In the case of `CCCCCCCCCCCCCCCCCCOc1cc(CO)cc(OCCCCCCCCCCCCCCCCCC)c1OCCCCCCCCCCCCCCCCCC` [Comparative Example 1], the “solubility in CPME” value is reported as 4.5 wt %, the solubility in chloroform is reported as 9.9 wt % and the “solubility in ethyl acetate” value is reported as 0.2 wt %. For the same compound, the “solubility in isopropyl acetate” value was 0.02 wt % and the solubility in toluene was 2.6 wt %.

In the case of `CCCCCCCCCCCCCCCCCCCCCCOc1ccc(CO)c(OCCCCCCCCCCCCCCCCCCCCCC)c1` [compound 2], the “solubility in ethyl acetate” value is reported as 0.3 wt % and the “solubility in isopropyl acetate” value is reported as 0.06 wt %.

In the case of “TERGITOL-Adduct of 3-hydroxymethylphenol [Example 21]”, the “solubility in CPME” value is reported as over 50 wt %, the solubility in chloroform is reported as over 50 wt % and the “solubility in ethyl acetate” value is reported as over 50 wt %.

With “3,4,5-tri(2′,3′-dihydrophytyloxy)benzyl alcohol [Example 5]” the “solubility in CPME” value was over 50 wt %, the solubility in chloroform was over 50 wt % and the “solubility in ethyl acetate” value was over 50 wt %. The “solubility in isopropyl acetate” value was over 50 wt % and the solubility in toluene was over 50 wt %.
